Earlier results as cited in paper PMC8985968, “Purification and characterization of antifungal lipopeptide produced by Bacillus velezensis isolated from raw honey” (PLoS ONE, 2022).

Tests used:
mouse models = system: mouse models
Description: The safety of the producer strains and their products need to be evaluated to achieve broader application of iturin A produced by Bacillus species. […] B. velezensis FZB42 type strain, which is closely related to our isolates, was also evaluated by US Environmental Protection Agency (EPA) and considered n ...

[1] = system: Aspergillus, Fusarium, Chrysosporium, Candida albicans, Trichosporium, Alternaria, and Cladosporium; conditions: isolated from crude extract of B. subtilis
Text: In a study by Pathak and Keharia (2014), iturin isomers and surfactin families were isolated from crude extract of B. subtilis. […] Similar t ...

iturin A
Organ-specific toxicity after discontinuation of treatment (mouse models; mouse models): reversible
Tissue deposition of iturin A (mouse models; mouse models): deposited in liver, lung, and spleen
Toxicity of iturin A in mouse models (mouse models; preliminary toxicology study, acute and subacute): can induce hepatotoxicity

iturin
Acute toxicity test (mouse models; intragastric, 7-day, 5000 mg/kg, no significant damage to liver, kidney, or small intestines): safe and non-toxic
Subacute toxicity test (mouse models; intragastric, 28-day, 2000 mg/kg, no significant damage to liver, kidney, or small intestines): safe and non-toxic

Iturin A3/A4/A5
Antifungal spectrum [1]: broad spectrum antifungal activities

Iturin A2
Antifungal spectrum [1]: broad spectrum antifungal activities
